According to patent US4659696A, “Pharmaceutical composition and its nasal or vaginal use” (Takeda Chemical Industries, Ltd., priority 1982, dated 1987):
Read-outs that look alike come from different tables or passages of the source. Blank lines part the entries; values can stand above or below the compound they belong to.

Key:
[1] = rat, in vivo
Procedure: Male SD strain rats (body weights 250 g, approx.) fasted for 16 hours are used in groups of at least 3 animals. Each animal is anesthetized with pentobarbital and administered nasal medication in accordance with the method described in International Journal of Pharmaceutics 7, 317 (1981). Then, 0.1 ml/kg of insulin solution is directly administered into the nasal cavity with a micropipette via the nostril.
In 0.1 ml of physiological saline are dissolved 100 μg of TAP-144 and 5 mg of α-cyclodextrin, and in the manner of Experimental Example 1, the 0.1 ml/kg equivalent of the solution is administered into the nasal cavity (the dose of TAP-144: […]).

[2] = rat, in vivo; remark: listed apart in the source
Procedure: (§1) SD-strain mature female rats (weighing about 270 g, 14 to 18 weeks old, in groups of 4 to 5 individuals) at diestrus as selected by the vaginal smear test covering a period of at least one week are anesthetized with pentobarbital and phenobarbital at 8-11 a.m., and a solution prepared by dissolving 500 μg of TAP-144 and 20 mg (2%), 50 mg (5%) or 100 mg (10%) of α-cyclodextrin in physiological saline in an amount to make 1 ml is administered into the vagina with about 12 mg of cotton soaked therewith at the dose level of 0.2 ml/kg (corresponding 100 μg/kg of TAP-144). Blood samples are taken from the tail vein at timed intervals and assayed for the serum TAP-144 level by radioimmunoassay [refer to Endocrinologia Japonica, vol.

in vivo = details: female, SD, rat, 100 ug/kg, Concentration of TAP-144 in serum
Procedure: as §1

[3] = rats, rectal suspension, 5-FU 50 mg/kg
Procedure: An amount (corresponding to 50 mg/kg) of 5-FU and 5 mg of α-cyclodextrin are finely milled in a mortar and added to 0.1 ml of physiological saline. The mixture is subjected to ultrasonic treatment (27 KHz, 5 minutes). The thus-obtained suspension is rectally administered to rats in the manner in Experimental Example 7. Blood samples are taken from the tail vein at timed intervals and 5-FU plasma levels are determined by bioassay using Micrococcus luteus ATCC-10240 as the test organism. In the control group, the procedure is followed with α-cyclodextrin-free 5-FU.

[4] = tested on: prothrombin time (blood coagulation time); assay: Prothrombin time (blood coagulation time) after rectal heparin sodium in rats; format: in vivo, rat; details: heparin sodium 600 U
Procedure: A 0.27 ml portion of each blood sample is placed in a polyethylene microtube containing 0.03 ml of 3.8 w/v percent of sodium citrate, the tube contents are stirred well and then centrifuged, and the plasma portion is subjected to prothrombin time (blood coagulation time) determination using a thromboplastin reagent (Simplastin, Ono Pharmaceutical Co., Japan). In the control group, the same procedure is followed with α-cyclodextrin-free heparin sodium. […] An increased absorption of heparin is thus shown.

[5] = Saturation solubility of cyclodextrin; format: physicochemical; details: isotonic buffer solution (pH 7.4)
[6] = rats, rectal Witepsol W-35 suppository, sodium cefazolin 50 mg/kg
Procedure: Thereafter, blood sampling from the tail vein is performed at timed intervals and the plasma cefazolin level is determined by bioassay using Bacillus subtilis PCI-219 as the test organism.

increase in bioavailability [1]: about 3.5 times | Concentration of TAP-144 in serum ([2]; female, SD, 100 ug/kg, 0.5 h): 45.3 ng/mL | promotion of vaginal absorption [2]: about 6 times | level at 0.5 h (in vivo): 28.1 ng/mL | level at 2 h (in vivo): 39.2 ng/mL | level at 4 h (in vivo): 32.1 ng/mL
Compound: CCNC(=O)[C@@H]1CCCN1C(=O)[C@H](CCCNC(=N)N)NC(=O)[C@H](CC(C)C)NC(=O)[C@@H](CC(C)C)NC(=O)[C@H](Cc1ccc(O)cc1)NC(=O)[C@H](CO)NC(=O)[C@H](Cc1c[nH]c2ccccc12)NC(=O)[C@H](Cc1c[nH]cn1)NC(=O)[C@@H]1CCC(=O)N1 [TAP-144]

Compound: O=c1[nH]cc(F)c(=O)[nH]1 [5-FU, 5-fluorouracil]
AUC (0-4 hr.) ([3]; 5% (w/v) α-cyclodextrin): 4.0 | Plasma level ([3]; 5% (w/v) α-cyclodextrin, 0.5 hr.): 1370 ng/mL | Plasma level ([3]; 5% (w/v) α-cyclodextrin, 1 hr.): 1720 ng/mL | Plasma level ([3]; 5% (w/v) α-cyclodextrin, 2 hr.): 1050 ng/mL | Plasma level ([3]; 5% (w/v) α-cyclodextrin, 4 hr.): 490 ng/mL | AUC (0-4 hr.) ([3]; no cyclodextrin): 1.1 | Plasma level ([3]; no cyclodextrin, 0.5 hr.): 970 ng/mL | Plasma level ([3]; no cyclodextrin, 1 hr.): 430 ng/mL | Plasma level ([3]; no cyclodextrin, 2 hr.): 130 ng/mL | Plasma level ([3]; no cyclodextrin, 4 hr.): 60 ng/mL

Compound: heparin sodium
Blood coagulation time ([4]; 5% (w/v) α-cyclodextrin, 0.5 hr., before administration 14.3): 17.2 s | Blood coagulation time ([4]; 5% (w/v) α-cyclodextrin, 0.75 hr., before administration 14.3): 18.4 s | Blood coagulation time ([4]; 5% (w/v) α-cyclodextrin, 1 hr., before administration 14.3): 19.7 s | Blood coagulation time ([4]; 5% (w/v) α-cyclodextrin, 1.5 hr., before administration 14.3): 18.9 s | Blood coagulation time ([4]; 5% (w/v) α-cyclodextrin, 2 hr., before administration 14.3): 19.4 s | Blood coagulation time ([4]; no cyclodextrin, 0.5 hr., before administration 13.6): 14.3 s | Blood coagulation time ([4]; no cyclodextrin, 0.75 hr., before administration 13.6): 13.7 s | Blood coagulation time ([4]; no cyclodextrin, 1 hr., before administration 13.6): 14.7 s | Blood coagulation time ([4]; no cyclodextrin, 1.5 hr., before administration 13.6): 15.3 s | Blood coagulation time ([4]; no cyclodextrin, 2 hr., before administration 13.6): 14.7 s

Compound: OC[C@H]1O[C@@H]2O[C@H]3[C@H](O)[C@@H](O)[C@@H](O[C@H]4[C@H](O)[C@@H](O)[C@@H](O[C@H]5[C@H](O)[C@@H](O)[C@@H](O[C@H]6[C@H](O)[C@@H](O)[C@@H](O[C@H]7[C@H](O)[C@@H](O)[C@@H](O[C@H]8[C@H](O)[C@@H](O)[C@@H](O[C@H]1[C@H](O)[C@H]2O)O[C@@H]8CO)O[C@@H]7CO)O[C@@H]6CO)O[C@@H]5CO)O[C@@H]4CO)O[C@@H]3CO [β-cyclodextrin]
saturation solubility [5]: about 1.8%

Plasma level ([6]; 10% (w/w) α-cyclodextrin, 0.5 hr.): 3840 ng/mL | Plasma level ([6]; 10% (w/w) α-cyclodextrin, 1 hr.): 5320 ng/mL | Plasma level ([6]; 10% (w/w) α-cyclodextrin, 2 hr.): 7370 ng/mL | Plasma level ([6]; 10% (w/w) α-cyclodextrin, 3 hr.): 6260 ng/mL | Plasma level ([6]; 10% (w/w) α-cyclodextrin, 4 hr.): 5320 ng/mL | Plasma level ([6]; no cyclodextrin, 0.5 hr.): 1760 ng/mL | Plasma level ([6]; no cyclodextrin, 1 hr.): 2210 ng/mL | Plasma level ([6]; no cyclodextrin, 2 hr.): 3000 ng/mL | Plasma level ([6]; no cyclodextrin, 3 hr.): 3490 ng/mL | Plasma level ([6]; no cyclodextrin, 4 hr.): 2540 ng/mL
Compound: Cc1nnc(SCC2=C(C(=O)O)N3C(=O)[C@@H](NC(=O)Cn4cnnn4)[C@H]3SC2)s1 [sodium cefazolin]
